Source: ChEMBL document CHEMBL4725392, “Orally Bioavailable Small-Molecule CD73 Inhibitor (OP-5244) Reverses Immunosuppression through Blockade of Adenosine Production” (J Med Chem, 2020)
pEC50, pIC50: −log10 of the molar value. Calls of active or inactive are those of the source. The calls are words filed in the database; no cut-off is given here.

What was measured:
[1] = target: T1, 5'-nucleotidase (Mus musculus) (UniProt Q61503); test: Inhibition of CD73 in AMP-induced mouse E.G7-OVA cells incubated for 60 mins by Wachstein-Meisel lead phosphate method; type: cell-based; details: dose nM 10-100, time 60.0 min
T1 sequence (whole entry): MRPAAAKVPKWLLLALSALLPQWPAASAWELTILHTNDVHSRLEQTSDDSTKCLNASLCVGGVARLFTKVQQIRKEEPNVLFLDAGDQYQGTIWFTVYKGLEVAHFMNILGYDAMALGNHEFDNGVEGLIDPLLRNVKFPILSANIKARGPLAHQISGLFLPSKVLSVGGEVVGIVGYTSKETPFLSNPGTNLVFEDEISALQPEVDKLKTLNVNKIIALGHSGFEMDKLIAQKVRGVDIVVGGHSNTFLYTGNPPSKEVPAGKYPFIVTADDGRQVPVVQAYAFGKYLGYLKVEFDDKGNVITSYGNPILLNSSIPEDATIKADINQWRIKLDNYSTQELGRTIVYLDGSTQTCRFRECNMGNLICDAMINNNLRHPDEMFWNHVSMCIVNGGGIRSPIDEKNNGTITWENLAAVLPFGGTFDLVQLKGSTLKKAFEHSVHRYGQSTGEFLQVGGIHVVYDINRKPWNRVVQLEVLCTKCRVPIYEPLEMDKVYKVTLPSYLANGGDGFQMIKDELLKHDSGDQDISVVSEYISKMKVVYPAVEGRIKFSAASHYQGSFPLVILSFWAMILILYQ

[2] = Cmax in mouse at 200 mg/kg, po; type: ADME, organism-based; design: route oral, dose 200 mg/kg; details: in vivo
E.G7-OVA [3] = test: Antitumour activity against mouse E.G7-OVA cells implanted in C57BL/6 mouse assessed as increase in CD8+/Treg ratio at 150 mg/kg, po BID for 16 days; type: functional, organism-based; details: time 16.0 day
[4] = AUC in rat at 0.2 mg/kg, iv; type: ADME, organism-based; design: dose 0.2 mg/kg; details: in vivo
[5] = Terminal half life in cynomolgus monkey at 0.2 mg/kg, iv; type: ADME, organism-based, Macaca fascicularis; details: in vivo, read-out: beta t1/2 (converted)
[6] = Terminal half life in mouse at 200 mg/kg, po; type: ADME, organism-based; details: in vivo, read-out: beta t1/2 (converted)
E.G7-OVA [7] = test: Antitumour activity against mouse E.G7-OVA cells implanted in C57BL/6 mouse assessed as increase in percentage of CD8+ T cells in total CD45+ leukocytes at 150 mg/kg, po BID for 16 days; type: functional, organism-based; details: time 16.0 day
5'-nucleotidase [8] = target: T2, 5'-nucleotidase (Homo sapiens, UniProt P21589); test: Inhibition of CD73 in human NCI-H1568 cells assessed as reduction in AMP-induced ADO expression preincubated for 15 mins followed by AMP addition and measured after 1 hr by LC-MS/MS analysis; type: cell-based
T2 sequence (P21589 whole entry): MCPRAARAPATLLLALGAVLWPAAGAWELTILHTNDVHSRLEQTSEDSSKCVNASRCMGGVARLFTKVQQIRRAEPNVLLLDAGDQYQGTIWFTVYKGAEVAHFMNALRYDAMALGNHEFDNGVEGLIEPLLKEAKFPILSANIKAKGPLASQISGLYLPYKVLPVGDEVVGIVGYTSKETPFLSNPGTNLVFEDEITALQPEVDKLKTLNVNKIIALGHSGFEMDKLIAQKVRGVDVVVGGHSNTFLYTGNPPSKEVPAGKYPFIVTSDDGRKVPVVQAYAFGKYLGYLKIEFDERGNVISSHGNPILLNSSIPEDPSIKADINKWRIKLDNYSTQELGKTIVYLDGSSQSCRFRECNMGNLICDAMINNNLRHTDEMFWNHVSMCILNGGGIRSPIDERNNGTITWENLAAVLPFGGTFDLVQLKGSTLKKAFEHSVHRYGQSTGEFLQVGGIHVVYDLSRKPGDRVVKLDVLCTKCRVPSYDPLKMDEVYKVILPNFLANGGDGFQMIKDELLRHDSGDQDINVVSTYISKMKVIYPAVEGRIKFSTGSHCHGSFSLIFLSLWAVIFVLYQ

5'-nucleotidase [9] = target: T2, 5'-nucleotidase; test: Inhibition of CD73 in human NCI-H1568 cells assessed as reduction in AMP-induced ADO expression preincubated for 15 mins followed by AMP addition and measured after 1 hr by LC-MS/MS analysis relative to control; type: cell-based
[10] = Cmax in cynomolgus monkey at 10 mg/kg, po; type: ADME, organism-based, Macaca fascicularis; design: route oral, dose 10 mg/kg; details: in vivo
Cytochrome P450 2C9 = Cytochrome P450 2C9 (Homo sapiens, UniProt P11712); test: Inhibition of CYP2C9 (unknown origin); type: ADME
Sequence of Cytochrome P450 2C9 (P11712 whole entry): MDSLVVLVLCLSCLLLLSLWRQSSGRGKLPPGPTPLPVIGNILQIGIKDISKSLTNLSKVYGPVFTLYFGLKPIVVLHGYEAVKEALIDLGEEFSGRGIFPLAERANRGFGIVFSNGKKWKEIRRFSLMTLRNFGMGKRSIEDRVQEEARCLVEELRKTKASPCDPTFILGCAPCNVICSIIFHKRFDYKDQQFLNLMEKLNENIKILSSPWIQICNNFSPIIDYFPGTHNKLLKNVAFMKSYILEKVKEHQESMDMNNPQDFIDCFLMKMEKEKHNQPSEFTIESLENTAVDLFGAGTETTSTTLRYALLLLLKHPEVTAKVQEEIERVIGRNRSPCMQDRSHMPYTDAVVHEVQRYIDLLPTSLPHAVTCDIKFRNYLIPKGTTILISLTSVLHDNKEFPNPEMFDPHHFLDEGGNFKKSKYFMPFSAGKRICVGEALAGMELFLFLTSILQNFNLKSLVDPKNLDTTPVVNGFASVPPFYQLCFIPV

[11] = Terminal half life in rat at 0.2 mg/kg, iv; type: ADME, organism-based; details: in vivo, read-out: beta t1/2 (converted)
EMT6 [12] = test: Antitumor activity against mouse EMT6 cells implanted in BALB/c mouse assessed as tumour growth inhibition at 15 mg/kg, sc and measured on day 13; type: functional, organism-based; details: time 13.0 day
[13] = Cmax in rat at 10 mg/kg, po; type: ADME, organism-based; design: route oral, dose 10 mg/kg; details: in vivo
[14] = Volume of distribution at steady state in dog at 0.2 mg/kg, iv; type: ADME, organism-based, Canis lupus familiaris; details: in vivo, read-out: Vdss
[15] = target: T1, 5'-nucleotidase (Mus musculus); test: Inhibition of CD73 in mouse EMT6 cells assessed as reduction in AMP-induced ADO expression preincubated for 15 mins followed by AMP addition and measured after 1 hr by LC-MS/MS analysis relative to control; type: cell-based
5'-nucleotidase [16] = target: T2, 5'-nucleotidase; test: Inhibition of human C-terminal His6-tagged CD73 expressed in CHO cells preincubated for 15 mins followed by AMP addition and measured after 10 mins by malachite green reagent based assay; type: cell-based
[17] = Volume of distribution at steady state in cynomolgus monkey at 0.2 mg/kg, iv; type: ADME, organism-based, Macaca fascicularis; details: in vivo, read-out: Vdss
[18] = Cmax in dog at 10 mg/kg, po; type: ADME, organism-based, Canis lupus familiaris; design: route oral, dose 10 mg/kg; details: in vivo
[19] = AUC in dog at 0.2 mg/kg, iv; type: ADME, organism-based, Canis lupus familiaris; design: dose 0.2 mg/kg; details: in vivo
EMT6 [20] = test: Antitumor activity against mouse EMT6 cells implanted in BALB/c mouse assessed as decrease in ADO/AMP ratio at 15 mg/kg, sc and measured on day 13 relative to control; type: functional; design: scale not given: the % may be the effect or the level left; details: time 13 day
[21] = Clearance in rat at 0.2 mg/kg, iv; type: ADME, organism-based; details: in vivo
5'-nucleotidase [22] = target: T2, 5'-nucleotidase; test: Inhibition of CD73 in CD3/CD28/CD2 activated human CD8+ T-cells assessed as increase in TNFalpha protein expression at 4.1 to 1000 nM preincubated for 15 mins followed by AMP addition and measured after 96 hr by ELISA; type: tissue-based; details: CD8-positive T cell, dose nM 4.1-1000, time 15.0 min
[23] = Volume of distribution at steady state in rat at 0.2 mg/kg, iv; type: ADME, organism-based; details: in vivo, read-out: Vdss
[24] = AUC infinity in mouse at 200 mg/kg, po; type: ADME, organism-based; design: route oral, time infinity, dose 200 mg/kg; details: in vivo
[25] = AUC in rat at 10 mg/kg, po; type: ADME, organism-based; design: dose 10 mg/kg; details: in vivo
5'-nucleotidase [26] = target: T2, 5'-nucleotidase; test: Inhibition of CD73 in human CD8+ T-cells assessed as reduction in AMP-induced ADO expression preincubated for 15 mins followed by AMP addition and measured after 1 hr by LC-MS/MS analysis relative to control; type: tissue-based; details: CD8-positive T cell
Cytochrome P450 2C8 = target: T3, Cytochrome P450 2C8 (Homo sapiens, UniProt P10632); test: Inhibition of CYP2C8 (unknown origin); type: ADME
T3 sequence (P10632 whole entry): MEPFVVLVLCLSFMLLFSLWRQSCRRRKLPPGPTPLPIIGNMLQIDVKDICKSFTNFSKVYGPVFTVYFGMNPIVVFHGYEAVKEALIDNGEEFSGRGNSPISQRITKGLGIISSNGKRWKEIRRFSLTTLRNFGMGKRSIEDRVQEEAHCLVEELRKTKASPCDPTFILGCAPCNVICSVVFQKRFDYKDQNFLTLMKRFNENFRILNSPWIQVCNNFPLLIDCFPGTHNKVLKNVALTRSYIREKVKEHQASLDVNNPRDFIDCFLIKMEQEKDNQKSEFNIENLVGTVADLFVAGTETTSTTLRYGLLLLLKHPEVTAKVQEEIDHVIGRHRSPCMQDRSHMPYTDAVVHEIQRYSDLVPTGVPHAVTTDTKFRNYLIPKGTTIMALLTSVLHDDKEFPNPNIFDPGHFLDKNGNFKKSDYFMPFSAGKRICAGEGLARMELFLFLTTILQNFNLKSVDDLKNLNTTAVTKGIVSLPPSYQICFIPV

[27] = Terminal half life in dog at 0.2 mg/kg, iv; type: ADME, organism-based, Canis lupus familiaris; details: in vivo, read-out: beta t1/2 (converted)
[28] = Clearance in cynomolgus monkey at 0.2 mg/kg, iv; type: ADME, organism-based, Macaca fascicularis; details: in vivo
5'-nucleotidase [29] = target: T2, 5'-nucleotidase; test: Inhibition of CD73 in CD3/CD28/CD2 activated human CD8+ T-cells assessed as increase in IFNgamma protein expression at 4.1 to 1000 nM preincubated for 15 mins followed by AMP addition and measured after 96 hr by ELISA; type: tissue-based; details: CD8-positive T cell, dose nM 4.1-1000, time 15.0 min
[30] = AUC in cynomolgus monkey at 0.2 mg/kg, iv; type: ADME, organism-based, Macaca fascicularis; design: dose 0.2 mg/kg; details: in vivo
[31] = target: T1, 5'-nucleotidase (Mus musculus); test: Inhibition of CD73 in AMP-induced mouse E.G7-OVA cells at 10 to 100 nM incubated for 60 mins by Wachstein-Meisel lead phosphate method; type: cell-based; details: dose nM 10-100, time 60.0 min
Cytochrome P450 3A4 = Cytochrome P450 3A4 (Homo sapiens, UniProt P08684); test: Inhibition of CYP3A4 (unknown origin); type: ADME
Sequence of Cytochrome P450 3A4 (P08684 whole entry): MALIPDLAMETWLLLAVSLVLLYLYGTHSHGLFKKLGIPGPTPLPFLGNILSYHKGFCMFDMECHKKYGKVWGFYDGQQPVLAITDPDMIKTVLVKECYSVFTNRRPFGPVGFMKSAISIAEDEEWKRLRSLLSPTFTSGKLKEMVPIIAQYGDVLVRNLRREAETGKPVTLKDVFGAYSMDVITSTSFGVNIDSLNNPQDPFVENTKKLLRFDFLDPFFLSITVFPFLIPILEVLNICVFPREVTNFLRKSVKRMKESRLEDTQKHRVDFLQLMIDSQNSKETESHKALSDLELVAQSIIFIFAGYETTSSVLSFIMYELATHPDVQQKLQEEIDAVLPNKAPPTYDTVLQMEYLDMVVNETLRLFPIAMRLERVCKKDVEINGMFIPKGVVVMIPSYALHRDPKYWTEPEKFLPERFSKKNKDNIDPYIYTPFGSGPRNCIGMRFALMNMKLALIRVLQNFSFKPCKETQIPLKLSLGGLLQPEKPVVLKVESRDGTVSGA

[32] = Clearance in dog at 0.2 mg/kg, iv; type: ADME, organism-based, Canis lupus familiaris; details: in vivo
[33] = AUC in cynomolgus monkey at 10 mg/kg, po; type: ADME, organism-based, Macaca fascicularis; design: dose 10 mg/kg; details: in vivo
5'-nucleotidase [34] = target: T4, 5'-nucleotidase (Mus musculus, UniProt Q61503); test: Inhibition of CD73 in mouse EMT6 cells assessed as reduction in AMP-induced ADO expression preincubated for 15 mins followed by AMP addition and measured after 1 hr by LC-MS/MS analysis; type: cell-based
T4 sequence (Q61503 whole entry): T1 sequence (whole entry)

5'-nucleotidase [35] = target: T2, 5'-nucleotidase; test: Inhibition of CD73 in human CD8+ T-cells assessed as reduction in AMP-induced ADO expression preincubated for 15 mins followed by AMP addition and measured after 1 hr by LC-MS/MS analysis; type: tissue-based, CD8-positive T cell
[36] = AUC in dog at 10 mg/kg, po; type: ADME, organism-based, Canis lupus familiaris; design: dose 10 mg/kg; details: in vivo
5'-nucleotidase [37] = target: T2, 5'-nucleotidase; test: Inhibition of CD73 in CD3/CD28/CD2 activated human CD8+ T-cells assessed as increase in T cell proliferation at 4.1 to 1000 nM preincubated for 15 mins followed by AMP addition and measured after 96 hr by flow cytometric analysis; type: tissue-based; details: CD8-positive T cell, dose nM 4.1-1000, time 15.0 min
EMT6 [38] = test: Antitumor activity against mouse EMT6 cells implanted in BALB/c mouse assessed as decrease in ADO expression at 15 mg/kg, sc and measured on day 13 relative to control; type: functional; design: scale not given: the % may be the effect or the level left; details: time 13 day

inhibition [1]: Dose-dependent effect
Cmax [2]: 42200 nM
AUC [4]: 2.11 µM·h
half-life [5]: 4.6 h
half-life [6]: 3.3 h
pEC50 (5'-nucleotidase [8]): 9.10
inhibition (5'-nucleotidase [9]): 100%
Cmax [10]: 1720 nM
pIC50 (Cytochrome P450 2C9): < 4.70
half-life [11]: 8.5 h
Cmax [13]: 820 nM
Vd [14]: 0.29 L/kg
inhibition [15]: 100%
pIC50 (5'-nucleotidase [16]): 9.60
Vd [17]: 0.1 L/kg
Cmax [18]: 1250 nM
AUC [19]: 0.31 µM·h
clearance [21]: 3 mL/min/kg
inhibition (5'-nucleotidase [22]): Active
Vd [23]: 0.22 L/kg
AUC(0-inf) [24]: 45.1 µM·h
AUC [25]: 1.96 µM·h
inhibition (5'-nucleotidase [26]): 100%
pIC50 (Cytochrome P450 2C8): < 4.70
half-life [27]: 0.82 h
clearance [28]: 0.833 mL/min/kg
inhibition (5'-nucleotidase [29]): Active
AUC [30]: 7.72 µM·h
inhibition [31]: Active
pIC50 (Cytochrome P450 3A4): < 4.70
clearance [32]: 20.3 mL/min/kg
AUC [33]: 14.2 µM·h
pEC50 (5'-nucleotidase [34]): 7.85
pEC50 (5'-nucleotidase [35]): 9.66
AUC [36]: 1.75 µM·h
inhibition (5'-nucleotidase [37]): Active
Structure (SMILES): COC[C@](CO)(OC[C@H]1O[C@@H](n2ncc3c(NC4CCCC4)nc(Cl)nc32)[C@H](O)[C@@H]1O)P(=O)(O)O
Activity (E.G7-OVA [3]): Active
Activity (E.G7-OVA [7]): Active
Activity (EMT6 [12]): Active
Activity (EMT6 [20]): 95%
Activity (EMT6 [38]): 100%
